# Experimental data as given in patent US9850247B2 (Almac Discovery Limited, priority 2013, dated 2017).
# Like-named read-outs stand apart in the source and are kept apart here.
# Experiments:
# Wee-1 kinase = molecular target: T1, Wee-1 kinase (Homo sapiens, UniProt P30291); experiment: Measurement of Wee-1 kinase activity (ADP-Glo luminescent kit); assay type: biochemical
# T1 construct: purchased Invitrogen PV3817
# In short: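 Activated Wee-1 was pre-incubated 30 min at RT with compound in 40 mM Tris-HCl, 20 mM MgCl2, 0.1 mg/mL BSA and 2 mM DTT. The reaction was started with an aliquot of 2.0 μg/mL poly(Lys,Tyr 4:1) plus 30 μM ATP and run 1 h at RT. ADP-Glo luminescence gave IC50 by non-linear fit.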
# [1] = system: phospho-cdc2 (Tyr15) in HT-29 cells; experiment: Effect on Cdc2 phosphorylation at Tyr15, Cell-Based ELISA Base Kit (Method 3); conditions: eight hours incubation, normalized to total cdc2, read-out: HT29 pCDC2 method 3
# Method: Method 3: Determining the Effect of Compounds on the Cdc2 phosphorylation at Tyr15, using a Cell-Based ELISA Base Kit (R&D Systems, KCB001)
# The colorectal cancer cell line, HT-29 was purchased from the ATCC and maintained in McCoy's 5 A medium (Gibco®, Life technologies) supplemented with 10% Foetal Calf Serum (FCS).
# The cells were trypsinised and counted, 100 μL of 8000 cells was seeded into each well of a clear-bottom black 96-well microplate and incubated overnight to allow adherence to the surface, at 37° C. and 5% CO2 in a cell culture incubator.
# Test compounds were formulated in DMSO and diluted in cell culture medium supplemented with FCS. Grow medium was removed from cells and medium containing compounds dilutions was added to each well. The plate was returned to the incubator for an additional eight hours of incubation at 37° C. and 5% CO2.
# Post incubation cells were fixed by replacing the compounds supplemented medium with 100 μL of 4% formaldehyde in 1× phosphate buffered saline (PBS), for 20 minutes at room temperature. Formaldehyde solution was removed and cells were washed three times with PBS. The Cell-Based ELISA assay (R&D Systems) was carried out immediately after cell fixation or the plate was sealed and fixed cells were stored in PBS at 4° C. until required (no more than two weeks).
# To continue the assay, PBS was removed and cells were washed 3 times for 5 minutes with 200 μL of 1× wash buffer. Each wash step was carried out with gentle shaking. Following washes, 100 μL of 0.6% H2O2 in 1× wash buffer (quenching buffer) was added, plate was sealed and incubated for 20 minutes at room temperature. Post incubation cells were washes 3 times for 5 minutes with 200 μL of 1× wash buffer, with gentle shaking. 100 μL of blocking buffer was added to each well, the plate was re-sealed and incubated at room temperature for 1 h.
# After blocking, cells were washed as described above. A primary antibody mixture was prepared by mixing the two primary antibodies, a rabbit monoclonal antibody for phospho-cdc2 (Tyr15) (Cell Signaling, #4539) and mouse monoclonal antibody for total cdc2 p34 (Santa Cruz Biotechnology, sc-54), diluted 1:25 and 1:50 in blocking buffer, respectively. 60 μL of primary antibody mixture was added to each well, the plate was sealed and incubated overnight at 4° C.
# The primary antibodies were removed and cells were washed as previously described. 100 μL of secondary antibody mixture, containing horseradish-peroxidase (HRP)-conjugated goat anti-rabbit IgG and alkaline phosphatase (AP)-conjugated goat anti-mouse IgG, diluted 1:100 in blocking buffer, was added to each test well. The plate was re-sealed and incubated for 2 hours at room temperature.
# The secondary antibodies were removed and cells washed 2 times with wash buffer, followed by 2 washes with PBS. Each wash step was carried out for 5 minutes with gentle shaking. PBS was removed and 75 μL of fluorogenic substrate for HRP (substrate F1) added to each well. The plate was sealed and incubated for 1 h at room temperature, in the dark. 75 μL of fluorogenic substrate for AP (substrate F2) was added directly to each well, plate re-sealed and incubated for additional 40 minutes at room temperature, protected from direct light.
# Following incubation fluorescence from each well was read at 600 nm (signal from substrate 1, phosphorylated protein) and then at 450 nm (signal from substrate 2, total protein).
# The percentage of phospho-cdc2 was calculated compared to DMSO control, normalized to the total cdc2 and plotted versus the concentration of inhibitor, using GraphPad Prism. Data was fitted using a non-linear regression analysis and EC50 values generated.
# [2] = CLint estimates using human liver microsomes (Method 4); assay type: in vitro ADME; conditions: pH 7.4, 1 μM compound, read-out: Mics - CLint (HLM CLint)
# In short: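 Compound at 1 μM (0.1% DMSO) incubated with human liver microsomes (0.5 mg protein/mL) in 0.1 M phosphate pH 7.4 at 37 °C, started with 1 mM NADPH. Samples taken 2–50 min, quenched in methanol, measured by LC/MS/MS (MRM). Half-life and CLint derived from the slope of ln peak area versus time.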
# T1 sequence (P30291 whole entry): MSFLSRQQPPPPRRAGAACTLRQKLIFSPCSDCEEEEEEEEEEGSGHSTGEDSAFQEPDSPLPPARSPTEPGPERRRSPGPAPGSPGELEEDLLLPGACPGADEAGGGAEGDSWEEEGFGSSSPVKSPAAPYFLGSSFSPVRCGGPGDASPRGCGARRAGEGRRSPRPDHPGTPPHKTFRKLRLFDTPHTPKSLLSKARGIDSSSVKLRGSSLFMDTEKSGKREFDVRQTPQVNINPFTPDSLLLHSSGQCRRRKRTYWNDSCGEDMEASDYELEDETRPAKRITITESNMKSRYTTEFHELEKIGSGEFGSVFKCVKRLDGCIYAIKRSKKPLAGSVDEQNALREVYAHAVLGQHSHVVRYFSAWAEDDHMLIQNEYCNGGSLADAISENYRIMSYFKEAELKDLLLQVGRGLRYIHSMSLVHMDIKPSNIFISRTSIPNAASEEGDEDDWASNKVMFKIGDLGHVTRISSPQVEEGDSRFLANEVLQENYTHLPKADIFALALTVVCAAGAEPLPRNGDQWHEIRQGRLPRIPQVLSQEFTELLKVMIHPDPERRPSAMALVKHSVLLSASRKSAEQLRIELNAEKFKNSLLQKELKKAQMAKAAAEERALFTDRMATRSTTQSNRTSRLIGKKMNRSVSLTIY
SMILES,IC50 (Wee-1 kinase) [nM],microsomal CLint at 1 μM [2] [µL/min/mg],"EC50 ([1]; Homo sapiens, HT-29, 8 h) [nM]",EC50 [1] [nM]
"CN1CN(c2c(Cl)cccc2Cl)C(=O)c2cnc(Nc3ccc(N4C[C@@H]5C[C@H]4CN5)c(CO)c3)nc21 [Example 164, 7-((4-((1S,4S)-2,5-diazabicyclo[2.2.1]heptan-2-yl)-3-(hydroxymethyl)phenyl)amino)-3-(2,6-dichlorophenyl)-1-methyl-2,3-dihydropyrimido[4,5-d]pyrimidin-4(1H)-one]",≤ 10,,≥ 1000,
"CCN1CN(c2c(Cl)cccc2Cl)C(=O)c2cnc(Nc3ccc(N4CCNCC4)cc3)nc21 [Example 169, 3-(2,6-dichlorophenyl)-1-ethyl-7-((4-(piperazin-1-yl)phenyl)amino)-2,3-dihydropyrimido[4,5-d]pyrimidin-4(1H)-one]",10 to 100,≤ 15,≥ 1000,
"CNCc1cc(Nc2ncc3c(n2)N(C)CN(c2c(Cl)cccc2Cl)C3=O)ccc1N(C)C [Example 153, 3-(2,6-dichlorophenyl)-7-((4-(dimethylamino)-3-((methylamino)methyl)phenyl)amino)-1-methyl-2,3-dihydropyrimido[4,5-d]pyrimidin-4(1H)-one]",≤ 10,15 to 50,100 to 1000,
"CCNCc1cc(Nc2ncc3c(n2)N(C)CN(c2c(Cl)cccc2Cl)C3=O)ccc1N1CCOCC1 [Example 174, 3-(2,6-dichlorophenyl)-7-((3-((ethylamino)methyl)-4-morpholinophenyl)amino)-1-methyl-2,3-dihydropyrimido[4,5-d]pyrimidin-4(1H)-one]",10 to 100,,≥ 1000,
"COC[C@H]1CN(c2ccc(Nc3ncc4c(n3)N(C)CN(c3c(Cl)cccc3Cl)C4=O)cc2C(O)C(F)F)CCN1 (single isomer, unassigned) [Example 163]",≤ 10,,,100 to 1000
"Cc1cc(Nc2ncc3c(n2)N(C)CN(c2c(Cl)cccc2Cl)C3=O)ccc1C1=CCNCC1 [Example 177, 3-(2,6-dichlorophenyl)-1-methyl-7-((3-methyl-4-(1,2,3,6-tetrahydropyridin-4-yl)phenyl)amino)-2,3-dihydropyrimido[4,5-d]pyrimidin-4(1H)-one]",≤ 10,,100 to 1000,
"CNCc1cc(Nc2ncc3c(n2)N(C)CN(c2c(Cl)cccc2Cl)C3=O)ccc1-c1cnn(C)c1 [Example 160, 3-(2,6-dichlorophenyl)-1-methyl-7-((4-(1-methyl-1H-pyrazol-4-yl)-3-((methylamino)methyl)phenyl)amino)-2,3-dihydropyrimido[4,5-d]pyrimidin-4(1H)-one]",10 to 100,,≥ 1000,
"CN1CN(c2c(Cl)cccc2Cl)C(=O)c2cnc(Nc3ccc(C4CCN(C5CCC5)CC4)c(CO)c3)nc21 [Example 181, 7-((4-(1-cyclobutylpiperidin-4-yl)-3-(hydroxymethyl)phenyl)amino)-3-(2,6-dichlorophenyl)-1-methyl-2,3-dihydropyrimido[4,5-d]pyrimidin-4(1H)-one]",≤ 10,,100 to 1000,
"CN1CN(c2c(Cl)cccc2Cl)C(=O)c2cnc(Nc3ccc4c(c3)C3CCC4N3)nc21 (stereo not drawn) [Example 166, 3-(2,6-dichlorophenyl)-1-methyl-7-((1,2,3,4-tetrahydro-1,4-epiminonaphthalen-6-yl)amino)-2,3-dihydropyrimido[4,5-d]pyrimidin-4(1H)-one]",10 to 100,,≥ 1000,
"CN1CN(c2c(Cl)cccc2Cl)C(=O)c2cnc(Nc3ccc4c(c3)C3CCC4N3C)nc21 (stereo not drawn) [Example 175, 3-(2,6-dichlorophenyl)-1-methyl-7-((9-methyl-1,2,3,4-tetrahydro-1,4-epiminonaphthalen-6-yl)amino)-2,3-dihydropyrimido[4,5-d]pyrimidin-4(1H)-one]",≤ 10,,100 to 1000,
"O=C1c2cnc(Nc3ccc(N4CCNCC4)cc3)nc2N(c2ccccc2)CN1c1c(Cl)cccc1Cl [Example 171, 3-(2,6-dichlorophenyl)-1-phenyl-7-((4-(piperazin-1-yl)phenyl)amino)-2,3-dihydropyrimido[4,5-d]pyrimidin-4(1H)-one]",≤ 10,,100 to 1000,
"Cc1cc(Nc2ncc3c(n2)N(C)CN(c2c(Cl)cccc2Cl)C3=O)ccc1C1=CCN(C)CC1 [Example 178, 3-(2,6-dichlorophenyl)-1-methyl-7-((3-methyl-4-(1-methyl-1,2,3,6-tetrahydropyridin-4-yl)phenyl)amino)-2,3-dihydropyrimido[4,5-d]pyrimidin-4(1H)-one]",≤ 10,,100 to 1000,
"CN1CN(c2c(Cl)cccc2Cl)C(=O)c2cnc(Nc3ccc(N4CC5COCC(C4)N5)c(CO)c3)nc21 [Example 173, 7-((4-(3-oxa-7,9-diazabicyclo[3.3.1]nonan-7-yl)-3-(hydroxymethyl)phenyl)amino)-3-(2,6-dichlorophenyl)-1-methyl-2,3-dihydropyrimido[4,5-d]pyrimidin-4(1H)-one]",10 to 100,,100 to 1000,

# Continued, in another order:
IC50 (Wee-1 kinase) [nM],microsomal CLint at 1 μM [2] [µL/min/mg],SMILES,"EC50 ([1]; Homo sapiens, HT-29, 8 h) [nM]",EC50 [1] [nM]
≤ 10,,"CN1CN(c2c(Cl)cccc2Cl)C(=O)c2cnc(Nc3ccc(C4=CCNCC4)c(CO)c3)nc21 [Example 179, 3-(2,6-dichlorophenyl)-7-((3-(hydroxymethyl)-4-(1,2,3,6-tetrahydropyridin-4-yl)phenyl)amino)-1-methyl-2,3-dihydropyrimido[4,5-d]pyrimidin-4(1H)-one]",≥ 1000,
10 to 100,,"C[C@@H]1CN(c2ccc(Nc3ncc4c(n3)N(C)CN(c3ccccc3Cl)C4=O)cc2)C[C@H](C)N1 [Example 103, 3-(2-chlorophenyl)-7-((4-((3S,5R)-3,5-dimethylpiperazin-1-yl)phenyl)amino)-1-methyl-2,3-dihydropyrimido[4,5-d]pyrimidin-4(1H)-one]",100 to 1000,
≤ 10,,"CN1CN(c2c(Cl)cccc2Cl)C(=O)c2cnc(Nc3ccc(N4C[C@@H]5C[C@H]4CN5C)c(CO)c3)nc21 [Example 176, 3-(2,6-dichlorophenyl)-7-((3-(hydroxymethyl)-4-((1S,4S)-5-methyl-2,5-diazabicyclo[2.2.1]heptan-2-yl)phenyl)amino)-1-methyl-2,3-dihydropyrimido[4,5-d]pyrimidin-4(1H)-one]",100 to 1000,
≤ 10,,"COC[C@H]1CN(c2ccc(Nc3ncc4c(n3)N(C)CN(c3c(Cl)cccc3Cl)C4=O)cc2C(O)C(F)(F)F)CCN1 (single isomer, unassigned) [Example 184]",,≥ 1000
≤ 10,,"CN1CC=C(c2ccc(Nc3ncc4c(n3)N(C)CN(c3c(Cl)cccc3Cl)C4=O)cc2CO)CC1 [Example 180, 3-(2,6-dichlorophenyl)-7-((3-(hydroxymethyl)-4-(1-methyl-1,2,3,6-tetrahydropyridin-4-yl)phenyl)amino)-1-methyl-2,3-dihydropyrimido[4,5-d]pyrimidin-4(1H)-one]",100 to 1000,
10 to 100,,"CN(C)CC(O)c1cccc(Nc2ncc3c(n2)N(C)CN(c2c(Cl)cccc2Cl)C3=O)c1 (stereo not drawn) [Example 172, 3-(2,6-dichlorophenyl)-7-((3-(2-(dimethylamino)-1-hydroxyethyl)phenyl)amino)-1-methyl-2,3-dihydropyrimido[4,5-d]pyrimidin-4(1H)-one]",≥ 1000,
≤ 10,,"COC[C@H]1CN(c2ccc(Nc3ncc4c(n3)N(C)CN(c3c(Cl)cccc3Cl)C4=O)cc2C(O)C(F)(F)F)CCN1 (single isomer, unassigned) [Example 185]",,100 to 1000
